Measured values reported in article PMC8271864, “Evaluation of Enzyme Inhibitory Activity of Flavonoids by Polydopamine-Modified Hollow Fiber-Immobilized Xanthine Oxidase” (Molecules, 2021).

These molecules were tested against T1, Xanthine oxidase (XOD) (Bos taurus, UniProt P80457) (assay: immobilized enzyme inhibition at […], hypoxanthine substrate, HPLC detection of uric acid).
T1 construct: gene XDH; commercial XOD immobilized on polydopamine-modified hollow fiber (XOD@PDA@HF)
Type: biochemical

T1 sequence (P80457 2-1332): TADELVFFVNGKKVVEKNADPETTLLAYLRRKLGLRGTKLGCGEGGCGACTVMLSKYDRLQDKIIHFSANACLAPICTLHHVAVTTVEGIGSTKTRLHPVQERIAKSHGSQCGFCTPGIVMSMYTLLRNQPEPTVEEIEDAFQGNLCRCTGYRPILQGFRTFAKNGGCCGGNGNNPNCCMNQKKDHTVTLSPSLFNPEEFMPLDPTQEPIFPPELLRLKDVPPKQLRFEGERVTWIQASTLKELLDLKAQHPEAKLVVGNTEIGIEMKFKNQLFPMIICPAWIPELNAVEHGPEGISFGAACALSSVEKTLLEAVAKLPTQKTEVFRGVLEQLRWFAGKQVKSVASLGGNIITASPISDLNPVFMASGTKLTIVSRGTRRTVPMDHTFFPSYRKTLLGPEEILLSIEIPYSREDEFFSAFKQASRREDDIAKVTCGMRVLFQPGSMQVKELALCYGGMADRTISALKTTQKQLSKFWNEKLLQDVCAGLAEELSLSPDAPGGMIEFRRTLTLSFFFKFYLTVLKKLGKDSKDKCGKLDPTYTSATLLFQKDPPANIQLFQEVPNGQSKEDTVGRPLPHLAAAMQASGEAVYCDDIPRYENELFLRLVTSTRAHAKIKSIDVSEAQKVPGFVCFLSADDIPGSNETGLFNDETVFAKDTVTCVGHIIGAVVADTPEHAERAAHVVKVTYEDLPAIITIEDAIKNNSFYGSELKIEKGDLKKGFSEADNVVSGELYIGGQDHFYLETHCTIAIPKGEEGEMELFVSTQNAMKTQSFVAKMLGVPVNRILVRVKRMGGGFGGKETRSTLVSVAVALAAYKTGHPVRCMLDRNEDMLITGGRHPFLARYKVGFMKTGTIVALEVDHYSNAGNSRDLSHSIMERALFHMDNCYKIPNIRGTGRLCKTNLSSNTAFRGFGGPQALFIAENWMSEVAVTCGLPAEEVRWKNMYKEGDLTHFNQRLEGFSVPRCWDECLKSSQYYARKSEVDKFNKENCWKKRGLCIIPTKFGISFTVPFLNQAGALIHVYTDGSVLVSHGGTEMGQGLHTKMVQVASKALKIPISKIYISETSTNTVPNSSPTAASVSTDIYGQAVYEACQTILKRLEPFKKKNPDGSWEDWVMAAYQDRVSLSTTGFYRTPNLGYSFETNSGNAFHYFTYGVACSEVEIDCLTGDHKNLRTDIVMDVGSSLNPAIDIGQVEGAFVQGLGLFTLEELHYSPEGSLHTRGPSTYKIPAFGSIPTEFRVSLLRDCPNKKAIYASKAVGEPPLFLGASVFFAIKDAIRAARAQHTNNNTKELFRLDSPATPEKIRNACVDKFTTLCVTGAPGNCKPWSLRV

`O=c1cc(-c2ccc(O)cc2)oc2cc(O)cc(O)c12` [Apigenin] and `O=c1c(O)c(-c2ccc(O)c(O)c2)oc2cc(O)cc(O)c12` [Quercetin] are within error of each other in inhibition at 1000 µM: 80.98 ± 0.64% for the first, 79.9 ± 3.5% for the second.

`Oc1cc(O)c2c(c1)O[C@H](c1cc(O)c(O)c(O)c1)[C@H](O)C2` [Epigallocatechin] and `O=c1c(-c2ccc(O)cc2)coc2c([C@@H]3O[C@H](CO)[C@@H](O)[C@H](O)[C@H]3O)c(O)ccc12` [Puerarin] are within error of each other in inhibition at 1000 µM: 54.92 ± 0.41% for the first, 61.1 ± 6.26% for the second.
